Data as given in article PMC3634352 (Journal of the American Chemical Society, 2013).

Columns and labels:
S. aureus SgtB [1] = biological target: T1, S. aureus SgtB (Staphylococcus aureus, UniProt Q99T05); assay type: binding; conditions: for drop in FP (probe displacement) when used instead of moenomycin: detergent controls
T1 sequence (Q99T05 1-269): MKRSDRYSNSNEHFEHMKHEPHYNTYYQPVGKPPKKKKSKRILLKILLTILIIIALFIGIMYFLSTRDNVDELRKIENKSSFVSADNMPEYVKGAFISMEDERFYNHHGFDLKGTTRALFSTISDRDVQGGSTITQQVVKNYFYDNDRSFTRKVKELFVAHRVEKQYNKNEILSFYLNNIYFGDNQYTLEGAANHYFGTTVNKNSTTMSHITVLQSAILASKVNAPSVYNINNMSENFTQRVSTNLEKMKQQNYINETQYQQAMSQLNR

S. aureus SgtB [2] = biological target: T1, S. aureus SgtB; assay type: biochemical
[3] = background statement; cited from earlier work
E. coli PBP1b = E. coli PBP1b (Escherichia coli, UniProt P02919); assay: in vitro PGT inhibition; assay type: biochemical
Sequence of E. coli PBP1b (P02919 whole entry): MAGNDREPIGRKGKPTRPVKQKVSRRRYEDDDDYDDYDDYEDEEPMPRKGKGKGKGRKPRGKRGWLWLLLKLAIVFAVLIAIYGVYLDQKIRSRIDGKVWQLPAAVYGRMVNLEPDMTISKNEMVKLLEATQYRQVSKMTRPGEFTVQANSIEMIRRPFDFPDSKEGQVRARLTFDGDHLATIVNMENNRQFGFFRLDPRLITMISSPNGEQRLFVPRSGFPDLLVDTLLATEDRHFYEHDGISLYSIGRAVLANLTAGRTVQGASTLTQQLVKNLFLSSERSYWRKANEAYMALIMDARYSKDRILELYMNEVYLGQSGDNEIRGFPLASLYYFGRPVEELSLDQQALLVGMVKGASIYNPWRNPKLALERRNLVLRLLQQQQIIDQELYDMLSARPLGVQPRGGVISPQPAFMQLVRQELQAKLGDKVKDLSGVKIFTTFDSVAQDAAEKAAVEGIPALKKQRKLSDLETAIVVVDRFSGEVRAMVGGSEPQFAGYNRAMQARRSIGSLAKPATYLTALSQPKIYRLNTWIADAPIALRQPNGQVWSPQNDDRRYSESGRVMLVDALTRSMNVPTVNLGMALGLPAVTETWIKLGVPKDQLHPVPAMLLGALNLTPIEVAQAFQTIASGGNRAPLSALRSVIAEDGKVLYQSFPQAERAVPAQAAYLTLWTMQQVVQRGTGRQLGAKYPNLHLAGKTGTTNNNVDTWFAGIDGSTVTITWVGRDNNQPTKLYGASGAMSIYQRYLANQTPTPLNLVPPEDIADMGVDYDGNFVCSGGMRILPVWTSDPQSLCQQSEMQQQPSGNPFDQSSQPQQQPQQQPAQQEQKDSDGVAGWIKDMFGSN

Row | Compound | drop in FP (probe displacement) when used instead of moenomycin (S. aureus SgtB [1]) | inhibition of enzyme (in words) (S. aureus SgtB [2]) | oral bioavailability [3] | serum half life [3] | inhibition of enzyme (in words) (E. coli PBP1b) | Ki (S. aureus SgtB [1]; read-out: Ki, displacement of probe 2, probe 2 75 nM, S. aureus SgtB 0.2 μM) [nM]
1 | tween-20 | no significant drop in FP |  |  |  |  | 
2 | moenomycin A [compound 1] |  | low-nanomolar inhibition | poor oral bioavailability | long serum half life | low-nanomolar inhibition | 640
3 | CCCCCCCCCCCCO[C@@H]1O[C@H](CO)[C@@H](O[C@H]2O[C@H](CO)[C@@H](O)[C@H](O)[C@H]2O)[C@H](O)[C@H]1O [dodecyl maltoside] | no significant drop in FP |  |  |  |  | 
